Test results from patent US20090306015A1, “PHARMACEUTICAL COMPOSITIONS AND METHODS OF USE OF HIGHLY LIPOPHILIC SULFHYDRYL COMPOUNDS” (Silamed, Inc., priority 2005, published 2009).
Like-named read-outs stand apart in the source and are kept apart here.

Tests used:
Type in all cases: cell-based
[1] = system: human MD-MBA-231 breast cancer cells; test: CellTiter-Blue cell viability, monotherapy
Procedure: (§1) CellTiter-Blue® Reagent Method: Following incubation with test compounds for 72 or 96 hours, human MD-MBA-231 breast cancer cells were briefly washed, […] stained with the CellTiter-Blue® Reagent resazurin. Resazurin measures the metabolic capacity of cells, an indicator of cell viability. Viable cells retain the ability to reduce resazurin into resorufin, that is highly fluorescent. […] This test measures the degree of cytotoxicity caused by the test material. IC50 determination: Data are expressed as the percentage of survival of the untreated (vehicle) control calculated from the fluorescence corrected for background absorbance. The surviving fraction of cells were determined by dividing the mean fluorescence values of the test agents by the mean fluorescence values of untreated control. The inhibitory concentration value for the test agent(s) and control were estimated using Prism 4 software (GraphPad Software, Inc.) by curve-fitting the data using the non-linear regression analysis. In some instances IC50 values could not be extrapolated and these are marked (*).

[2] = system: human MD-MBA-231 breast cancer cells; test: CellTiter-Blue cell viability, concurrent combination treatment with doxorubicin; settings: for 72 Hours IC10 Doxorubicin / 96 Hours IC10 Doxorubicin: concurrent combination with IC10 of Adriamycin (doxorubicin); for 72 Hours IC30 Doxorubicin / 96 Hours IC30 Doxorubicin: concurrent combination with IC30 of Adriamycin (doxorubicin)
Procedure: as §1, with “(*). Compounds of the invention were tested as monotherapy and results presented in TABLE 1 Compounds of the invention were tested in combination with inhibitory concentration 30% and 10% (IC30/IC10) of Adriamycin (doxorubicin) and results presented in TABLE 2” for “(*).”

[3] = system: human MD-MBA-231 breast cancer cells; test: CellTiter-Blue cell viability, 6-hour pretreatment before doxorubicin administration; settings: for 72 Hours IC10 Doxorubicin / 96 Hours IC10 Doxorubicin: 6-hour pretreatment with compound before IC10 doxorubicin; for 72 Hours IC30 Doxorubicin / 96 Hours IC30 Doxorubicin: 6-hour pretreatment with compound before IC30 doxorubicin
Procedure: as §1, with “(*). Compounds of the invention were tested as monotherapy and results presented in TABLE 1 Compounds of the invention were tested in combination with inhibitory concentration 30% and 10% (IC30/IC10) of Adriamycin (doxorubicin) following 6 hours of pretreatment with example compounds and results presented in TABLE 3” for “(*).”

[4] = 72 hours incubation, read-out: 72 Hours Treatment IC50
[5] = 96 hours incubation, read-out: 96 Hours Treatment IC50

**Q.** For `CC(=O)N[C@@H](CS)C(=O)NCCC[Si](C)(C)C` [Eample 1, (R)-2-acetamido-3-mercapto-N-(3-(trimethylsilyl)propyl)propanamide], which IC50 [1, 4] is on record?
**A.** 21.6 µM

**Q.** And the IC50 [1, 5]?
**A.** 18.8 µM

**Q.** And the “72 Hours IC10 Doxorubicin” value [2]?
**A.** 7.49 µM

**Q.** And the “96 Hours IC10 Doxorubicin” value [2]?
**A.** 6.703 µM

**Q.** What about the “72 Hours IC30 Doxorubicin” value [2] of the same molecule?
**A.** 29.67 µM

**Q.** What about the “96 Hours IC30 Doxorubicin” value [2] of the same molecule?
**A.** 26.70 µM

**Q.** What about the “72 Hours IC10 Doxorubicin” value [3] of the same molecule?
**A.** 27.13 µM

**Q.** What about the “96 Hours IC10 Doxorubicin” value [3] of the same molecule?
**A.** 34.20 µM

**Q.** What about the “72 Hours IC30 Doxorubicin” value [3] of the same molecule?
**A.** 10.04 µM

**Q.** What about the “96 Hours IC30 Doxorubicin” value [3] of the same molecule?
**A.** 2.162 µM

**Q.** `CC(=O)N[C@@H](CS)C(=O)NC[Si](C)(C)C` [Example 2, (R)-2-acetamido-3-mercapto-N-((trimethylsilyl)methyl)propanamide] was tested. Which IC50 [1, 4] did it give?
**A.** 132 µM

**Q.** And the IC50 [1, 5]?
**A.** 136 µM

**Q.** And the “72 Hours IC10 Doxorubicin” value [2]?
**A.** 49.42 µM

**Q.** What about the “96 Hours IC10 Doxorubicin” value [2] of the same molecule?
**A.** 34.55 µM

**Q.** And the “72 Hours IC30 Doxorubicin” value [2]?
**A.** 269.0 µM

**Q.** What about the “72 Hours IC10 Doxorubicin” value [3] of the same molecule?
**A.** 210.70 µM

**Q.** And the “72 Hours IC30 Doxorubicin” value [3]?
**A.** 56.64 µM

**Q.** What about the “96 Hours IC30 Doxorubicin” value [3] of the same molecule?
**A.** 14.68 µM

**Q.** With `CC(=O)N[C@@H](CS)C(=O)NC[Si](C)(C)c1ccccc1` [Example 3, (R)-2-acetamido-N-((dimethyl(phenyl)silyl)methyl)-3-mercaptopropanamide] as the molecule, how does the IC50 [1, 4] read?
**A.** 28.1 µM

**Q.** What about the IC50 [1, 5] of the same molecule?
**A.** 24.3 µM

**Q.** What about the “72 Hours IC10 Doxorubicin” value [2] of the same molecule?
**A.** 8.553 µM

**Q.** What about the “96 Hours IC10 Doxorubicin” value [2] of the same molecule?
**A.** 9.479 µM

**Q.** And the “72 Hours IC30 Doxorubicin” value [2]?
**A.** 39.29 µM

**Q.** What about the “96 Hours IC30 Doxorubicin” value [2] of the same molecule?
**A.** 30.63 µM

**Q.** And the “72 Hours IC10 Doxorubicin” value [3]?
**A.** 35.69 µM

**Q.** What about the “96 Hours IC10 Doxorubicin” value [3] of the same molecule?
**A.** 37.88 µM

**Q.** What about the “72 Hours IC30 Doxorubicin” value [3] of the same molecule?
**A.** 11.21 µM

**Q.** And the “96 Hours IC30 Doxorubicin” value [3]?
**A.** 3.799 µM

**Q.** Which results are given for `CC(=O)N[C@@H](CS)C(=O)O` [N-Acetyl-L-Cysteine, reference compound]?
**A.** IC50 [1, 4]: 277 µM; 72 Hours IC10 Doxorubicin [2]: 129.70 µM; 72 Hours IC30 Doxorubicin [2]: 639.30 µM; 96 Hours IC30 Doxorubicin [2]: 925.2 µM; 72 Hours IC10 Doxorubicin [3]: 499.10 µM; 96 Hours IC10 Doxorubicin [3]: 454.10 µM
